In patent US11357752B2, “Carolacton and derivatives thereof for use in the treatment of cell proliferation disorders” (Helmholtz-Zentrum für Infektionsforschung GmbH, priority 2017, dated 2022):

Biological target: T1, hsMTHFD2 (Homo sapiens, UniProt P13995)
T1 construct: His-tag (vector pHis-TEV); made in house; host or cells: E. coli BL21 (DE3)
T1 sequence (P13995 36-350): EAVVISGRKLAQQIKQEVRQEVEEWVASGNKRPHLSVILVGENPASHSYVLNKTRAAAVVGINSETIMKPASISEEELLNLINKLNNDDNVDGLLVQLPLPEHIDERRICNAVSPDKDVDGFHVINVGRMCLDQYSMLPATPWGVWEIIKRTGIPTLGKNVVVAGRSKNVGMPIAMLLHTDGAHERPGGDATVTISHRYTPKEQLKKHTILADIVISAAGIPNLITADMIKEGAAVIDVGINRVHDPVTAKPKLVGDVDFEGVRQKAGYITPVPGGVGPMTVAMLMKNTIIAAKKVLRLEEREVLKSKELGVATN
Test: Surface plasmon resonance assay
Format: binding
Conditions: read-out: KD (SPR)
Procedure: All surface plasmon resonance (SPR) experiments described in this study were performed on a Biacore X100 system. Different FoIDs with or without His-tag were coupled on CM5 sensor chips (GE Healthcare) by the amine coupling method using a kit from GE Healthcare Life Sciences (Freiburg, Germany). A pH scouting process was performed before protein immobilization to test the most appropriate buffer and the protein concentration for protein coupling. Finally, 20 μg/mL of ecFoID in 10 mM maleate buffer (pH 6.8), 30 μg/mL of ecFoID Q98H in 10 mM maleate buffer (pH 6.3), 40 μg/mL of ecFoID K54N in 10 mM maleate buffer (pH 5.8), 20 μg/mL of spFoID in 10 mM maleate buffer (pH 6.0) and 15 μg/mL of MTHFD2 (His-tag cleaved) in 10 mM maleate buffer (pH 6.8) were used for coupling. In the protein immobilization procedure, the contact time was calculated based on the pH scouting results to achieve -3000-5000 relative resonance units (RU). The buffer used in the SPR assays was 1×HBS-P buffer (10 mM HEPES pH 7.4, 150 mM NaCl, 0.05% Tween 20). The 1 mM stock solution of carolacton was prepared in 1×HBS-P buffer and diluted to different concentration ranges by two-fold serial dilution. In the SPR assay, the association time was 180 s and the dissociation time was 600 s. Data analysis was performed using the Biacore evaluation software. […]

Compound `CO[C@H](CC(=O)O)[C@@H](C)C(=O)[C@H](C)/C=C(\C)[C@H]1OC(=O)[C@H](O)[C@H](O)/C=C/[C@H](C)CCC[C@@H]1C` [Carolacton, carolacton] has a Kd of 19 nM.
